This note sets out measurements from patent publication US8765138B2 (priority 2004, dated 2014).

For assay [1], the system named is Flu A H3N2 Wisconsin 67/2005. The assay can be described thus: microbe, parasite or virus in culture. The format is cell-based. Conditions: Influenza A virus, H3N2, MDCK, read-out: Control EC50.
Another assay relates to MDCK cell line. The assay can be described thus: cells. The format is cell-based. Conditions: for Control IC50: ribavirin control, with Flu A H5N1.

Converted amounts (≈) assume the structure as drawn. Some results are limits rather than exact numbers.

On to `NC(=O)c1ncn([C@@H]2O[C@H](CO)[C@@H](O)[C@H]2O)n1` [RIBAVARIN, Ribavirin], for which, in assay [1], the EC50 – broadly, the concentration giving half of the maximal effect – is 1.9 µg/mL (≈ 7.78 µM). In addition, the IC50 (usually the concentration that inhibits the measured activity by half) in the assay with MDCK cell line (Canis lupus familiaris, MDCK, read-out: Control IC50) was above 320 µg/mL. For the same compound, the “Control IC50” value in the assay on MDCK cell line (Neutral Red) and in the assay on MDCK cell line (Visual) was above 320 µg/mL throughout.
